Test results reported in ChEMBL document CHEMBL6182867, “Discovery of ultra short β-peptoids with selective activity against drug-resistant Mycobacterium tuberculosis” (Eur J Med Chem, 2025).
Converted amounts (≈) assume the structure as drawn.

What was measured:
[1] = Cytotoxicity against African green monkey Vero cells measured after 3 days by resazurin dye based fluorescence assay; type: toxicity, cell-based; conditions: African green monkey (Chlorocebus sabaeus)
[2] = system: Mycobacterium tuberculosis; assay: Antitubercular activity against Mycobacterium tuberculosis H37Rv ATCC 27294 by microplate alamar blue assay; type: functional
[3] = system: Mycobacterium tuberculosis; assay: Bactericidal activity against Mycobacterium tuberculosis H37Rv measured up to 7 days by luminescence assay; type: functional; conditions: time <= 7 day
[4] = system: Mycobacterium tuberculosis; assay: Antitubercular activity against Mycobacterium tuberculosis H37Rv by microplate alamar blue assay; type: functional
[5] = system: Mycobacteroides abscessus; assay: Antibacterial activity against Mycobacterium abscessus ATCC 19977 incubated for 3 days by microplate alamar blue assay; type: functional; conditions: ATCC 19977, 72 h, time 3 day
Mycobacteroides chelonae = assay: Antibacterial activity against Mycobacteroides chelonae ATCC 35752 incubated for 3 days by microplate alamar blue assay; type: functional; conditions: ATCC 35752, 72 h, time 3 day
Mycobacterium marinum = assay: Antibacterial activity against Mycobacterium marinum ATCC 927 incubated for 5 days by microplate alamar blue assay; type: functional; conditions: ATCC 927, 120 h, time 5 day
Mycobacterium avium = assay: Antibacterial activity against Mycobacterium avium ATCC 15769 incubated for 6 days by microplate alamar blue assay; type: functional; conditions: ATCC 15769, 144 h, time 6 day
Mycobacterium kansasii = assay: Antibacterial activity against Mycobacterium kansasii ATCC 12478 incubated for 7 days by microplate alamar blue assay; type: functional; conditions: ATCC 12478, 168 h, time 7 day
[6] = system: Mycobacterium tuberculosis; assay: Antitubercular activity against Mycobacterium tuberculosis KMA 1354 by microplate alamar blue assay; type: functional
[7] = system: Mycobacterium tuberculosis; assay: Antitubercular activity against Mycobacterium tuberculosis KMA 3899 by microplate alamar blue assay; type: functional
[8] = system: Mycobacterium tuberculosis; assay: Antitubercular activity against Mycobacterium tuberculosis KMA 4244 by microplate alamar blue assay; type: functional
[9] = system: Mycobacterium tuberculosis; assay: Antitubercular activity against Mycobacterium tuberculosis KMA 4439 by microplate alamar blue assay; type: functional
[10] = system: Mycobacterium tuberculosis; assay: Antitubercular activity against Mycobacterium tuberculosis KMA 5282 by microplate alamar blue assay; type: functional
Enterococcus faecium = assay: Antibacterial activity against Enterococcus faecium by microplate alamar blue assay; type: functional
Staphylococcus aureus = assay: Antibacterial activity against Staphylococcus aureus by microplate alamar blue assay; type: functional
Klebsiella pneumoniae = assay: Antibacterial activity against Klebsiella pneumoniae by microplate alamar blue assay; type: functional
Acinetobacter baumannii = assay: Antibacterial activity against Acinetobacter baumannii by microplate alamar blue assay; type: functional
Pseudomonas aeruginosa = assay: Antibacterial activity against Pseudomonas aeruginosa by microplate alamar blue assay; type: functional
Klebsiella aerogenes = assay: Antibacterial activity against Enterobacter aerogenes by microplate alamar blue assay; type: functional

## CC/C(=C(\c1ccccc1)c1ccc(OCCN(C)C)cc1)c1ccccc1 [TAMOXIFEN]
[1]
  IC50 at 3 days: 13.9 µM

## CC(C)N(C(=O)CN(Cc1cccc2ccccc12)C(=O)CNCc1cccs1)C(C)C
[2]
  MIC90: 11.6 µg/mL

## O=[N+]([O-])c1cn2c(n1)OC[C@@H](OCc1ccc(OC(F)(F)F)cc1)C2 [PRETOMANID]
[2]
  MIC90: 0.1 µM
[3]
  MBC99: 480 µg/mL (≈ 1340 µM)

## CC(C)N(C(=O)CNCC(c1ccccc1)c1ccccc1)C(C)C
[2]
  MIC90: 20.4 µg/mL

## NNC(=O)c1ccncc1 [ISONIAZID]
[2]
  MIC90: 0.46 µM
[4]
  MIC90: 0.31 µM
[5]
  MIC90: > 8 µM
Mycobacteroides chelonae
  MIC90: > 8 µM
Mycobacterium marinum
  MIC90: > 8 µM
Mycobacterium avium
  MIC90: > 8 µM
Mycobacterium kansasii
  MIC90: > 8 µM
[6]
  MIC90: 0.46 µM
[7]
  MIC90: 0.43 µM
[8]
  MIC90: 1.55 µM
[9]
  MIC90: 0.41 µM
[10]
  MIC90: 0.98 µM
[3]
  MBC99: 250 µg/mL (≈ 1820 µM)

## O=C(CCNCC1CCCO1)N1CCCC1 (stereo not drawn)
[2]
  MIC90: > 100 µg/mL

## O=C(CCNCc1cccc2ccccc12)NCCC(c1ccccc1)c1ccccc1
[2]
  MIC90: 43.8 µg/mL

## COCCN(CCOC)C(=O)CCN(CC1CCCO1)C(=O)CCNCC(c1ccccc1)c1ccccc1 (stereo not drawn)
[2]
  MIC90: 6.22 µg/mL

## COc1nc2ccc(Br)cc2cc1[C@@H](c1ccccc1)[C@@](O)(CCN(C)C)c1cccc2ccccc12 [BEDAQUILINE]
[2]
  MIC90: 0.01 µM
[4]
  MIC90: 0.12 µM
[5]
  MIC90: 0.49 µM (≈ 0.272 µg/mL)
Mycobacteroides chelonae
  MIC90: 0.48 µM (≈ 0.267 µg/mL)
Mycobacterium marinum
  MIC90: 0.45 µM (≈ 0.25 µg/mL)
Mycobacterium avium
  MIC90: 0.44 µM (≈ 0.244 µg/mL)
Mycobacterium kansasii
  MIC90: 0.45 µM (≈ 0.25 µg/mL)
[6]
  MIC90: 0.24 µM
[7]
  MIC90: 0.12 µM
[8]
  MIC90: 0.24 µM
[9]
  MIC90: 0.24 µM
[10]
  MIC90: 0.24 µM
[1]
  IC50 at 3 days: 51.4 µM
[3]
  MBC99: 150 µg/mL (≈ 270 µM)

## COCCN(CCOC)C(=O)CCNC(=O)CCNCc1cccc2ccccc12
[2]
  MIC90: 3.87 µg/mL

## CC(C)N(C(=O)CN(CC(c1ccccc1)c1ccccc1)C(=O)CNCC1CCCO1)C(C)C (stereo not drawn)
[2]
  MIC90: 24.4 µg/mL

## COc1c(N2C[C@@H]3CCCN[C@@H]3C2)c(F)cc2c(=O)c(C(=O)O)cn(C3CC3)c12 [MOXIFLOXACIN]
[2]
  MIC90: 0.19 µM
[4]
  MIC90: 0.29 µM
Enterococcus faecium
  MIC90: 1.58 µM (≈ 0.634 µg/mL)
Staphylococcus aureus
  MIC90: < 0.195 µM
Klebsiella pneumoniae
  MIC90: < 0.195 µM
Acinetobacter baumannii
  MIC90: < 0.195 µM
Pseudomonas aeruginosa
  MIC90: 0.75 µM (≈ 0.301 µg/mL)
Klebsiella aerogenes
  MIC90: < 0.195 µM
[6]
  MIC90: 0.12 µM
[7]
  MIC90: 0.11 µM
[8]
  MIC90: 0.42 µM
[9]
  MIC90: 0.33 µM
[10]
  MIC90: 0.48 µM
[1]
  IC50 at 3 days: > 100 µM
[3]
  MBC99: 470 µg/mL (≈ 1170 µM)

## NC(=O)c1cnccn1 [PYRAZINAMIDE]
[4]
  MIC90: 0.43 µM
[6]
  MIC90: 0.25 µM
[7]
  MIC90: 0.24 µM
[8]
  MIC90: 1.51 µM
[9]
  MIC90: 0.49 µM
[10]
  MIC90: 0.92 µM

## O=C(CNCCC(c1ccccc1)c1ccccc1)N1CCCC1
[2]
  MIC90: 11.6 µg/mL

## CC(C)N(C(=O)CNCc1cccc2ccccc12)C(C)C
[2]
  MIC90: 43.3 µg/mL
[4]
  MIC90: 88.8 µg/mL
[6]
  MIC90: 85 µg/mL
[7]
  MIC90: 49.9 µg/mL
[8]
  MIC90: 95.5 µg/mL
[9]
  MIC90: 95.2 µg/mL
[10]
  MIC90: 93.6 µg/mL

## CCN(CC)C(=O)CCNCCC1CCCCCCC1
[2]
  MIC90: 12.2 µg/mL

## CC(C)N(C(=O)CNCCC(c1ccccc1)c1ccccc1)C(C)C
[2]
  MIC90: 9.55 µg/mL
